Laboratory results reported in PubChem BioAssay (NCI).
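Grown in 96-well plates, cells were treated for 48 hours with each compound at five concentrations. Insufficient inhibition: endpoint recorded as highest concentration tested. TGI is the concentration that stops growth completely.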

Experiments:
Experiment in all cases: DTP human tumour cell line panel, 48 h
[1] = test system: KM12 colon
[2] = test system: MOLT-4 leukemia
[3] = test system: A498 renal
[4] = test system: SR leukemia
[5] = test system: HOP-92 NSCLC
[6] = test system: UACC-62 melanoma
[7] = test system: 786-0 renal
[8] = test system: RXF 393 renal
[9] = test system: TK-10 renal
[10] = test system: M14 melanoma
[11] = test system: MALME-3M melanoma
[12] = test system: K-562 leukemia
[13] = test system: OVCAR-5 ovarian
[14] = test system: KM20L2 colon
[15] = test system: SK-OV-3 ovarian
[16] = test system: COLO 205 colon
[17] = test system: EKVX NSCLC
[18] = test system: UO-31 renal
[19] = test system: SNB-19 CNS
[20] = test system: SW-620 colon
[21] = test system: NCI-H460 lung
[22] = test system: XF 498 CNS
[23] = test system: RPMI-8226 leukemia
[24] = test system: LXFL 529 NSCLC
[25] = test system: SK-MEL-28 melanoma
[26] = test system: HCT-116 colon
[27] = test system: SF-268 CNS
[28] = test system: NCI-H226 lung
[29] = test system: OVCAR-3 ovarian
[30] = test system: HOP-62 NSCLC
[31] = test system: SK-MEL-5 melanoma
[32] = test system: UACC-257 melanoma
[33] = test system: SNB-75 CNS
[34] = test system: HCT-15 colon
[35] = test system: OVCAR-8 ovarian
[36] = test system: HOP-18 NSCLC
[37] = test system: ACHN renal
[38] = test system: DLD-1 colon
[39] = test system: LOX IMVI melanoma
[40] = test system: SF-295 CNS
[41] = test system: IGROV1 ovarian
[42] = test system: RXF-631 renal
[43] = test system: U251 CNS
[44] = test system: HCC-2998 colon
[45] = test system: A549 NSCLC
[46] = test system: NCI-H23 lung
[47] = test system: OVCAR-4 ovarian
[48] = test system: HL-60(TB) leukemia
[49] = test system: HT29 colon
[50] = test system: SN12C renal
[51] = test system: NCI-H522 lung
[52] = test system: SNB-78 CNS
[53] = test system: CAKI-1 renal
[54] = test system: DMS 114 small cell lung
[55] = test system: CCRF-CEM leukemia
[56] = test system: SF-539 CNS
[57] = test system: DMS 273 small cell lung
[58] = test system: M19-MEL melanoma
[59] = test system: SK-MEL-2 melanoma

O=C(NCCS(=O)(=O)N1C(=O)C2CCCN2C(=O)[C@@H]1Cc1ccccc1)OCc1ccccc1 (stereo partly drawn)
TGI [1]: > 100 µM | TGI [2]: > 100 µM | TGI [3]: 95.9 µM | TGI [4]: > 100 µM | TGI [5]: > 100 µM | TGI [6]: > 100 µM | TGI [7]: > 100 µM | TGI [8]: > 100 µM | TGI [9]: > 100 µM | TGI [10]: > 100 µM | TGI [11]: > 100 µM | TGI [12]: > 100 µM | TGI [13]: > 100 µM | TGI [14]: > 100 µM | TGI [15]: > 100 µM | TGI [16]: 58.4 µM | TGI [17]: > 100 µM | TGI [18]: > 100 µM | TGI [19]: > 100 µM | TGI [20]: > 100 µM | TGI [21]: > 100 µM | TGI [22]: 11 µM | TGI [23]: 64.4 µM | TGI [24]: > 100 µM | TGI [25]: > 100 µM | TGI [26]: > 100 µM | TGI [27]: > 100 µM | TGI [28]: > 100 µM | TGI [29]: 70.2 µM | TGI [30]: > 100 µM | TGI [31]: > 100 µM | TGI [32]: > 100 µM | TGI [33]: > 100 µM | TGI [34]: > 100 µM | TGI [35]: > 100 µM | TGI [36]: > 100 µM | TGI [37]: > 100 µM | TGI [38]: > 100 µM | TGI [39]: > 100 µM | TGI [40]: > 100 µM | TGI [41]: > 100 µM | TGI [42]: > 100 µM | TGI [43]: > 100 µM | TGI [44]: 73.2 µM | TGI [45]: > 100 µM | TGI [46]: > 100 µM | TGI [47]: > 100 µM | TGI [48]: 48.9 µM | TGI [49]: > 100 µM | TGI [50]: > 100 µM | TGI [51]: > 100 µM | TGI [52]: > 100 µM | TGI [53]: > 100 µM | TGI [54]: 89.2 µM | TGI [55]: > 100 µM | TGI [56]: > 100 µM

COc1ccc(Br)c(CCCCC(=O)O)c1
TGI [2]: > 100 µM | TGI [3]: > 100 µM | TGI [5]: 76.3 µM | TGI [6]: > 100 µM | TGI [7]: > 100 µM | TGI [8]: > 100 µM | TGI [57]: > 100 µM | TGI [9]: > 100 µM | TGI [10]: > 100 µM | TGI [12]: > 100 µM | TGI [14]: > 100 µM | TGI [15]: > 100 µM | TGI [16]: > 100 µM | TGI [17]: > 100 µM | TGI [19]: > 100 µM | TGI [20]: > 100 µM | TGI [21]: > 100 µM | TGI [22]: > 100 µM | TGI [23]: > 100 µM | TGI [24]: > 100 µM | TGI [25]: > 100 µM | TGI [26]: > 100 µM | TGI [29]: > 100 µM | TGI [30]: > 100 µM | TGI [31]: > 100 µM | TGI [32]: > 100 µM | TGI [33]: > 100 µM | TGI [34]: > 100 µM | TGI [35]: > 100 µM | TGI [36]: > 100 µM | TGI [37]: > 100 µM | TGI [38]: > 100 µM | TGI [39]: > 100 µM | TGI [40]: > 100 µM | TGI [41]: > 100 µM | TGI [43]: > 100 µM | TGI [44]: > 100 µM | TGI [45]: > 100 µM | TGI [46]: > 100 µM | TGI [47]: > 100 µM | TGI [58]: > 100 µM | TGI [48]: > 100 µM | TGI [49]: > 100 µM | TGI [50]: > 100 µM | TGI [52]: > 100 µM | TGI [53]: > 100 µM | TGI [54]: > 100 µM | TGI [55]: > 100 µM | TGI [56]: > 100 µM

CCN1CCC(O)(c2ccccc2)C(C(=O)c2ccccc2)C1 (stereo not drawn)
TGI [1]: > 100 µM | TGI [2]: > 60.2 µM | TGI [3]: > 100 µM | TGI [4]: 60.3 µM | TGI [5]: 36.1 µM | TGI [6]: > 69.2 µM | TGI [7]: 31 µM | TGI [8]: 29.7 µM | TGI [57]: > 100 µM | TGI [9]: 47.3 µM | TGI [10]: 34.4 µM | TGI [11]: 38.4 µM | TGI [12]: > 66 µM | TGI [13]: 37.5 µM | TGI [14]: > 60.7 µM | TGI [15]: > 100 µM | TGI [16]: 53.1 µM | TGI [17]: > 76.4 µM | TGI [18]: > 70 µM | TGI [19]: > 100 µM | TGI [20]: 38.3 µM | TGI [21]: > 100 µM | TGI [22]: 29.9 µM | TGI [23]: 33.4 µM | TGI [24]: 29.4 µM | TGI [25]: 33.4 µM | TGI [26]: 31 µM | TGI [27]: > 31.6 µM | TGI [28]: 99.2 µM | TGI [29]: 31.2 µM | TGI [30]: > 100 µM | TGI [31]: > 100 µM | TGI [32]: 46.5 µM | TGI [33]: > 100 µM | TGI [34]: > 61.2 µM | TGI [35]: 63.7 µM | TGI [36]: 28 µM | TGI [37]: 30.5 µM | TGI [38]: 37 µM | TGI [39]: > 31.6 µM | TGI [40]: > 100 µM | TGI [41]: > 100 µM | TGI [43]: > 100 µM | TGI [59]: > 100 µM | TGI [44]: > 100 µM | TGI [45]: > 100 µM | TGI [46]: 97.5 µM | TGI [47]: 32.8 µM | TGI [58]: > 63.1 µM | TGI [48]: 46.8 µM | TGI [49]: 39.7 µM | TGI [50]: > 31.6 µM | TGI [51]: 6.87 µM | TGI [52]: 54.1 µM | TGI [53]: 19.3 µM | TGI [54]: > 67.4 µM | TGI [55]: 38.3 µM | TGI [56]: > 100 µM
